# Test results as given in patent publication US9951058B2, “Compound, pharmaceutically acceptable salt or optical isomer thereof, method for preparing the same, and pharmaceutical composition for prevention or treatment of viral diseases containing same as active ingredient” (Korea Research Institute of Chemical Technology, priority 2012, dated 2018).
# Columns and labels:
# in vitro = conditions: human
# HRV 14 = assay: Cytopathic effect (CPE) inhibition assay; type: cell-based, human rhinovirus; conditions: Human rhinovirus sp., HeLa, 72 h, host cell HeLa, 3 days, MEM/2% FBS, MTT assay; read-out: EC50 HRV 14
# HRV 71 = assay: Cytopathic effect (CPE) inhibition assay; type: cell-based, human rhinovirus; conditions: Human rhinovirus sp., 72 h; host cell HeLa, 3 days, MEM/2% FBS, MTT assay; read-out: EC50 HRV 71
# poliovirus 3 (PV3) = assay: microbe, parasite or virus in culture; type: cell-based; conditions: Enterovirus C, 72 h, read-out: EC50 PV3
# [1] = test system: coxsackievirus B3 (Cox B3); assay: Multicycle cytopathic effect (CPE) reduction assay; type: cell-based; conditions: Enterovirus B, B3, 72 h, read-out: EC50 CoxB3
# HRV 21 = assay: Cytopathic effect (CPE) inhibition assay; type: cell-based, human rhinovirus; conditions: Human rhinovirus sp., 72 h; host cell HeLa, 3 days, MEM/2% FBS, MTT assay; read-out: EC50 HRV 21
# [2] = Cytotoxicity (CC50) in multicycle CPE reduction assay, MTS; conditions: human
# [3] = test system: coxsackievirus B1 (Cox B1); assay: Multicycle cytopathic effect (CPE) reduction assay; type: cell-based; conditions: Enterovirus B, B1, 72 h, read-out: EC50 CoxB1
Structure (SMILES),CC50 (in vitro),EC50 (HRV 14),EC50 (HRV 71),EC50 (poliovirus 3 (PV3)),EC50 [1],EC50 (HRV 21),CC50 at 3 days [2],EC50 [3]
"Cc1cccc(C)c1NC(=O)C(=O)NC12C(=O)c3ccccc3C1(O)Oc1cc(C(C)C)ccc12 (centres unmarked) [Example 20, N1-(2,6-dimethylphenyl)-N2-(4b-hydroxy-7-isopropyl-10-oxo-4b, 10-dihydro-9bH-indeno[1,2-b]benzofuran-9b-yl)oxal amide]",> 10 µg/mL,< 10 µg/mL,> 10 µg/mL,< 10 µg/mL,< 0.1 µg/mL,> 10 µg/mL,> 10 µg/mL,< 0.1 µg/mL
"CC(C)c1ccc2c(c1)OC1(O)c3ccccc3C(=O)C21NC(=O)C(=O)N(C)C (centres unmarked) [Example 21, N1-(4b-hydroxy-7-isopropyl-10-oxo-4b, 10-dihydro-9bH-indeno[1,2-b]benzofuran-9b-yl)-N2, N2-dimethyl oxal amide]",> 10 µg/mL,< 1 µg/mL,> 10 µg/mL,< 10 µg/mL,< 0.1 µg/mL,> 10 µg/mL,> 10 µg/mL,< 0.1 µg/mL
"CC(C)c1ccc2c(c1)OC1(O)c3ccccc3C(=O)C21NC(=O)C(=O)N1CCN(C)CC1 (centres unmarked) [Example 48, N-(4b-hydroxy-7-isopropyl-10-oxo-4b, 10-dihydro-9bH-indeno[1,2-b]benzofuran-9b-yl)-2-(4-methylpiperazin-1-yl)-2-oxo acetamide]",> 10 µg/mL,< 1 µg/mL,> 10 µg/mL,< 10 µg/mL,< 0.1 µg/mL,> 10 µg/mL,> 10 µg/mL,< 0.1 µg/mL
"CC(C)c1ccc2c(c1)OC1(O)c3ccccc3C(=O)C21NC(=O)CN (centres unmarked) [Example 64, 2-amino-N-(4b-hydroxy-7-isopropyl-10-oxo-4b, 10-dihydro-9bH-indeno[1,2-b]benzofuran-9b-yl)acetamide]",> 10 µg/mL,< 10 µg/mL,> 10 µg/mL,> 10 µg/mL,< 0.1 µg/mL,> 10 µg/mL,> 10 µg/mL,< 0.1 µg/mL
"CCC(C)C(=O)C(=O)NC12C(=O)c3c(N)cccc3C1(O)Oc1cc(C(C)C)ccc12 (centres unmarked) [Example 40, N-(1-amino-4b-hydroxy-7-isopropyl-10-oxo-4b, 10-dihydro-9bH-indeno[1,2-b]benzofuran-9b-yl)-3-methyl-2-oxo pentanamide]",> 10 µg/mL,< 0.1 µg/mL,> 10 µg/mL,< 0.1 µg/mL,< 0.01 µg/mL,> 10 µg/mL,> 10 µg/mL,< 0.01 µg/mL
"COc1ccc(/C=C/C(=O)C(=O)NC23C(=O)c4ccccc4C2(O)Oc2cc(C(C)C)ccc23)cc1OC (centres unmarked) [Example 24, (E)-4-(3,4-dimethoxyphenyl)-N-(4b-hydroxy-7-isopropyl-10-oxo-4b, 10-dihydro-9bH-indeno[1,2-b]benzofuran-9b-yl)-2-oxobut-3-enamide]",> 10 µg/mL,< 10 µg/mL,> 10 µg/mL,< 10 µg/mL,< 0.1 µg/mL,> 10 µg/mL,> 10 µg/mL,< 0.1 µg/mL
"CC(C)c1ccc2c(c1)OC1(O)c3cccc(N)c3C(=O)C21NC(=O)C(=O)c1c[nH]c2ccccc12 (centres unmarked) [Example 10, N-(1-amino-4b-hydroxy-7-isopropyl-10-oxo-9b, 10-dihydro-4bH-indeno[1,2-b]benzofuran-9b-yl)-2-(1H-indo1-3-yl)-2-oxo acetamide]",4.89 µg/mL,< 0.1 µg/mL,> 4.89 µg/mL,< 0.1 µg/mL,0.014 µg/mL,> 4.89 µg/mL,8.33 µg/mL,< 0.01 µg/mL
"CCNC(=O)OC12C(=O)c3ccccc3C1(OC)Oc1cc(C(C)C)ccc12 (centres unmarked) [Example 62, 7-isopropyl-4b-methoxy-10-oxo-4b, 10-dihydro-9bH-indeno[1,2-b]benzofuran-9b-yl ethyl carbamate]",> 10 µg/mL,> 10 µg/mL,> 10 µg/mL,> 10 µg/mL,< 10 µg/mL,> 10 µg/mL,> 10 µg/mL,< 10 µg/mL
"Cc1cc(C)c(C(=O)C(=O)NC23C(=O)c4c(N)cccc4C2(O)Oc2cc(C(C)C)ccc23)c(C)c1 (centres unmarked) [Example 54, N-(1-amino-4b-hydroxy-7-isopropyl-10-oxo-4b, 10-dihydro-9bH-indeno[1,2-b]benzofuran-9b-yl)-2-mesityl-2-oxo acetamide]",8.6 µg/mL,< 1 µg/mL,> 8.6 µg/mL,< 10 µg/mL,< 0.1 µg/mL,> 8.6 µg/mL,> 10 µg/mL,< 0.1 µg/mL
"CNC(=O)C(=O)NC12C(=O)c3ccccc3C1(O)Oc1cc(C(C)C)ccc12 (centres unmarked) [Example 27, N1-(4b-hydroxy-7-isopropyl-10-oxo-4b, 10-dihydro-9bH-indeno[1,2-b]benzofuran-9b-yl)-N2-methyl oxal amide]",> 10 µg/mL,< 1 µg/mL,> 10 µg/mL,< 10 µg/mL,< 0.1 µg/mL,> 10 µg/mL,> 10 µg/mL,< 0.1 µg/mL
